# Data from patent US6649635B2, “Heteroarylcarboxamide compounds active against protein tyrosine kinase related disorders” (Sugen, Inc., priority 1997, dated 2003).
# Where two headings read alike, the source gives them in different places.
# What was measured:
# FGFR = experiment: FGF-induced DNA synthesis (BrdU incorporation) in 3T3/EGFRc7 cells; type: cell-based
# Experimental: (§1) The following example illustrates the ability of the compounds of the invention to inhibit FGFR-stimulated and PDGFR-stimulated DNA synthesis in cells. DNA synthesis is required for many of the activities of FGFP and PDGFR including, but not limited to, cell proliferation. Uridine is added in one set of samples to overcome any contribution made by inhibition of DHOD and just evaluate the inhibition of PDGFR or FGFR signaling. (See Greene, et al., Biochem. Pharmacol., 50(6):861 (1995), Nair, et al., Immunology Letters, 47:171 (1995)).
# (§2) (1) EGF: mouse EGF, 201; Toyobo,Co., Ltd. Japan; PDGF, Boehringer Mannheim, Germany; FGF, Gibco.
# (§3) (2) BrdU Labeling Reagent: 10 mM, in PBS (pH7.4) Cat. No. 1 647 229, Boehringer Mannheim, Germany.
# (§4) (3) FixDenat: fixation solution (ready to use), Cat. No. 1 647 229, Boehringer Mannheim, Germany.
# (§5) (4) Anti-BrdU-POD: mouse monoclonal antibody conjugated with peroxidase, Cat. No. 1 647 229, Boehringer Mannheim, Germany.
# (§6) (5) TMB Substrate Solution: tetramethylbenzidine (TMB), ready to use, Cat. No. 1 647 229, Boehringer Mannheim, Germany.
# (§7) (6) PBS Washing Solution: 1×phosphate buffered saline, pH 7.4
# (§8) (7) Albumin, Bovine (BSA): fraction V powder; A-8551, Sigma Chemical Co., USA.
# (§9) (8) NIH3T3 clone C7 (3T3/EGFRc7)(Honegger et al., Cell 51:199-209, 1987)) engineered to over-express human EGF receptor.
# (§10) These cells natively express FGFR and PDGFR.
# (§11) (1) 3T3/EGFRc7 cells were seeded at 8000 cells/well in DMEM, 10% CS, 2 mM Gln in a 96 well plate. Cells are incubated overnight at 37 degrees C. in 5% CO2.
# (§12) (2) After 24 hours, the cells were washed with PBS, and then serum starved in serum free medium (0%CS DMEM with 0.1% BSA) for 24 hours.
# (3) On day 3, ligand (2n EGF or 1.5 nM FGF or 3.8 nM PDGF) prepared in DMEM with 0.1% BSA and 30 μM (final concentration) uridine) and test compound was added to the cells simultaneously.
# The negative control wells received serum free DMEM with 0.1% BSA only; the positive control cells received ligand but no test compound. Test compound was prepared in serum free DMEM with ligand in a 96 well plate, and serially diluted for 7 test concentrations.
# (4) After 20 hours of ligand activation, diluted BrdU labeling reagent (1:100 in DMEM, 0.1% BSA) was added and the cells were incubated with BrdU (final concentration=10 μM) for 1.5 hours.
# (5) After incubation with labeling reagent, the medium was removed by decanting and tapping the inverted plate on a paper towel. FixDenat solution was added (50 μl/well) and the plates incubated at room temperature for 45 minutes on a plate shaker.
# (6) The FixDenat solution was thoroughly removed by decanting and tapping the inverted plate on a paper towel. Milk is added (5% dehydrated milk in PBS, 200 μl/well) as a blocking solution and the plate was incubated for 30 minutes at room temperature on a plate shaker.
# (7) The blocking solution was removed by decanting and the wells were washed once with PBS. Anti-BrdU-POD solution (1:100 dilution in PBS, 1% BSA) was added (100 μl/well) and the plate was incubated for 90 minutes at room temperature on a plate shaker.
# (8) The antibody conjugate was thoroughly removed by decanting and rinsing the wells 5 times with PBS, and the plate dried by inverting and tapping on a paper towel.
# (9) TMB substrate solution was added (100 μl/well) and incubated for 20 minutes at room temperature on a plate shaker until color development was sufficient for photometric detection.
# (§13) (10) The absorbance of the samples was measured at 410 nm (in “dual wavelength” mode with a filter reading at 490 nm, as a reference wavelength) on a Dynatech ELISA plate reader.
# C6 cells (glioblastoma) = experiment: Subcutaneous xenograft experiment, inhibition of tumor growth in vivo; details: for inhibition (% of control): 30 mg/kg/day IP in DMSO, tumor volume
# Experimental: Female athymic mice (BALB/c, nu/nu) were obtained from Simonsen Laboratories (Gilroy, Calif.). All animals were maintained under clean-room conditions in Micro-isolator cages with Alpha-dri bedding. They received sterile rodent chow and water ad libitum.
# Cell lines were grown in Ham's F10 plus 5% fetal bovine serum (FBS) and 2 mM glutamine (GLN). All cell culture media, glutamine, and fetal bovine serum were purchased from Gibco Life Technologies (Grand Island, N.Y.) unless otherwise specified. All cells were grown in a humid atmosphere of 90-95% air and 5-10% CO2 at 37° C. All cell lines were routinely subcultured twice a week and were negative for mycoplasma as determined by the Mycotect method (Gibco).
# Cells were harvested at or near confluency with 0.05% Trypsin-EDTA and pelleted at 450×g for 10 min. Pellets were resuspended in sterile PBS or media (without FBS) and the cells were implanted into the hindflank of the mice (8-10 mice per group 3×10^6 cells/animal). Tumor growth was measured over 3 weeks using venier calipers. Tumor volumes were calculated as a product of length×width×height unless otherwise indicated. P values were calculated using the Students' t-test. Cmpd. 1 in 50 μL excipient (DMSO) was delivered by IP bolus injection daily.
# human EGF receptor = molecular target: T1, human EGF receptor (Homo sapiens, UniProt P00533); experiment: EGF-induced DNA synthesis (BrdU incorporation) in 3T3/EGFRc7 cells; type: cell-based; details: read-out: EGF-induced (inhibition of DNA synthesis)
# T1 construct: expressed in transfected cells; host or cells: NIH3T3 clone C7 (3T3/EGFRc7)
# Experimental: as §1, §2, §3, §4, §5, §6, §7, §8, §9, §10, §11, §12
# (§14) (3) On day 3, ligand (2n EGF or 1.5 nM FGF or 3.8 nM PDGF) prepared in DMEM with 0.1% BSA and 30 μM (final concentration) uridine) and test compound was added to the cells simultaneously. […]
# as §13
# PDGFR = experiment: PDGF-induced DNA synthesis (BrdU incorporation) in 3T3/EGFRc7 cells; type: cell-based; details: 3.8 nM PDGF, read-out: PDGF-induced (inhibition of DNA synthesis)
# Experimental: as §1, §2, §3, §4, §5, §6, §7, §8, §9, §10, §11, §12, §14, §13
# [1] = FGF induced DNA synthesis, with added uridine (30 μM), read-out: IC50 + uridine
# [2] = FGF induced DNA synthesis, without added uridine, read-out: IC50 − uridine
# [3] = 1.5 nM FGF, Table 2 experiment, read-out: FGF-induced (inhibition of DNA synthesis)
# T1 sequence (P00533 25-1210): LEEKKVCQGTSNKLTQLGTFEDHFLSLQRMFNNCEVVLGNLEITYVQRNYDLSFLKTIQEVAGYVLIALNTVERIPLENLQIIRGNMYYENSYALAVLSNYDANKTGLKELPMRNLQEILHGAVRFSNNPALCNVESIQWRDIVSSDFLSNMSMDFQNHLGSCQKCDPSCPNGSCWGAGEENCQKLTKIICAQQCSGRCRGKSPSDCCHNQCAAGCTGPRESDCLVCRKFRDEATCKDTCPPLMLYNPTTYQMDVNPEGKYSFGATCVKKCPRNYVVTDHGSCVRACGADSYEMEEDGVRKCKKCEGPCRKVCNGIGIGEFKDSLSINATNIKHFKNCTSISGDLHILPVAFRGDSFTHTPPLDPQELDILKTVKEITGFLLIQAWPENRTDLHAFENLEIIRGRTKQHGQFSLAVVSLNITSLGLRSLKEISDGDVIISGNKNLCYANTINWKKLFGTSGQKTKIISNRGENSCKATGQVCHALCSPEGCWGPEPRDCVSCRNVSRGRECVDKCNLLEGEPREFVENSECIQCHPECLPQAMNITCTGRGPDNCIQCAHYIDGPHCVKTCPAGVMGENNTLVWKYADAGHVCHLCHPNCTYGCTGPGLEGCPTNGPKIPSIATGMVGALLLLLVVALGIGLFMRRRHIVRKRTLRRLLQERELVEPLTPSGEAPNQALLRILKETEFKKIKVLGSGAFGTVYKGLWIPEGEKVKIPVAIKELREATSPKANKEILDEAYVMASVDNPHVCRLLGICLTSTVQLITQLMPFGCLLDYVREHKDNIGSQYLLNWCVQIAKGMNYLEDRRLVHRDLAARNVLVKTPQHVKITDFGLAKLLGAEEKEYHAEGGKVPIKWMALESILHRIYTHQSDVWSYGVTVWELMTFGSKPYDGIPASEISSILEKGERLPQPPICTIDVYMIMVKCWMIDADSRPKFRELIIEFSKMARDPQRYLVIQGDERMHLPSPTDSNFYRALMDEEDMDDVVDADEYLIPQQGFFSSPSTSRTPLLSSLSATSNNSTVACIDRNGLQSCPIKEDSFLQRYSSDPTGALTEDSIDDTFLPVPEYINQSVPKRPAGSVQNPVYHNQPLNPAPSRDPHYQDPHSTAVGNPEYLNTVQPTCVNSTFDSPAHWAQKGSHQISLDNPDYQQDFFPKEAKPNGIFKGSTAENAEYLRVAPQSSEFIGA
SMILES,IC50 (FGFR; [1]) [µM],IC50 (FGFR; [2]) [µM],IC50 (FGFR; [3]) [µM],IC50 (human EGF receptor) [µM],IC50 (PDGFR) [µM],also measured
C/C(O)=C(\C#N)C(=O)Nc1ccc(C(F)(F)F)cc1 [A771726],> 100,20,,,,
"Cc1nocc1C(=O)Nc1ccc(C(F)(F)F)cc1 [cmpd. 1, 3-Methyl-4-[4-(trifluoromethyl)phenyl-aminocarbonyl]isoxazole]",70,85,65,> 100,90,"toxic effect at the dose tested (C6 cells (glioblastoma); 30 mg/kg/day IP, xenograft mice): no toxic effect; mortality (C6 cells (glioblastoma); Day 8, 30 mg/kg/day IP): 0; inhibition (% of control) (C6 cells (glioblastoma); Day 8): 34 % of control; mortality (C6 cells (glioblastoma); Day 10, 30 mg/kg/day IP): 0; inhibition (% of control) (C6 cells (glioblastoma); Day 10): 42 % of control; mortality (C6 cells (glioblastoma); Day 13, 30 mg/kg/day IP): 0; inhibition (% of control) (C6 cells (glioblastoma); Day 13): 48 % of control; mortality (C6 cells (glioblastoma); Day 15, 30 mg/kg/day IP): 0; inhibition (% of control) (C6 cells (glioblastoma); Day 15): 47 % of control; mortality (C6 cells (glioblastoma); Day 17, 30 mg/kg/day IP): 0; inhibition (% of control) (C6 cells (glioblastoma); Day 17): 50 % of control; mortality (C6 cells (glioblastoma); Day 20, 30 mg/kg/day IP): 0; inhibition (% of control) (C6 cells (glioblastoma); Day 20): 52 % of control"
"Cc1n[nH]cc1C(=O)Nc1ccc(C(F)(F)F)cc1 [cmpd. 2, 3-Methyl-4-[4-(trifluoromethyl)phenylaminocarbonyl]pyrazole]",,,> 100,> 100,95,

# Second part, led by results:
IC50 (FGFR; [1]) [µM],IC50 (FGFR; [2]) [µM],IC50 (FGFR; [3]) [µM],IC50 (human EGF receptor) [µM],IC50 (PDGFR) [µM],SMILES,also measured
> 100,1.6,,,,Cc1c(-c2ccc(-c3ccccc3F)cc2)nc2ccc(F)cc2c1C(=O)O [brequinar],
,,> 100,> 100,> 100,"Cc1noc(C)c1C(=O)Nc1ccc(C(F)(F)F)cc1 [cmpd. 21, 3,5-Dimethyl-4-[4-(trifluoromethyl)phenylaminocarbonyl]isoxazole]",
80,20,,,,"Cc1oncc1C(=O)Nc1ccc(C(F)(F)F)cc1 [leflunomide, 4-(-(4′-trifluoromethylphenyl)carboxamido)-5-methyl-isoxazole]",
